As usually defined, the melting point is the temperature, or range, at which the solid turns liquid.

For the compound `CCOc1nn(-c2ccc(C(F)(F)F)cn2)cc1CCCOc1cc(OC)ccc1CC(=O)O`, the melting point was in the range of 147 to 148 °C. In turn, `CC(C)(C)OC(=O)NCc1ccc(C(=O)NCCC(=O)OCc2ccccc2)cc1` gave a melting point of 113 to 116 °C. The result for `COC(=O)c1cc(S(N)(=O)=O)cc2c1OCCO2` reads 225 to 226 °C; that for `CC(NC(=O)CNC(=O)c1c(Cl)cccc1Cl)c1ccccc1` (centres undefined), 155 °C. The result for `CC(C)(C=O)C(O)(CCc1ccc(F)cc1)Cn1cncn1` (centres undefined) reads 98 °C; that for `O=S(=O)(c1ccc2c(c1)OC(c1ccccc1)(c1ccccc1)O2)N1CCCCC1`, 163 to 164 °C. The result for `CCOC(=O)c1ccc(NCCOc2cccc3ccccc23)cc1` reads 124 to 127 °C; that for `CN1CCN(C(=O)COc2cccc(-n3nc(-c4ccc(F)cc4)c4cccnc43)c2)CC1`, 132 to 135 °C; that for `O=C(NNC(=O)c1ccccc1O)c1ccccc1O`, 303 °C.

Compound `CC(C)OCC1(C(F)(F)F)c2cc(C#N)ccc2Nc2ncc(C#N)cc21` (centres undefined) showed a melting point of 226 to 227 °C. The result for `OC1(c2ccc(-c3ccccc3)cc2)CN2CCC1CC2` (centres undefined) reads 165 to 166 °C. The result for `COC(=O)c1cc(OCc2ccc3ccccc3n2)nn1C(C)C` reads 64 to 65 °C; that for `Cc1ccc(C[C@@H]2CN(CCCN3C(=O)c4ccccc4C3=O)CCN2C(=O)c2cc(C(F)(F)F)cc(C(F)(F)F)c2)cc1C`, 146 to 147 °C; that for `CCOc1cc(CCCN2CCc3cc(OC)c(OC)cc3C2)ccc1NC(=O)c1cccc2c(=O)c3cccc(F)c3[nH]c12`, 200 °C. Compound `N#CC(c1ccccc1Cl)N1CCOCC1` (centres undefined) came in with a melting point of 40 to 42 °C. The result for `CCCCOc1ccc(S(=O)(=O)C2(C(=O)O)CCN(Cc3ccc(C#N)cc3)CC2)cc1` reads 242 °C; that for `O=C1CCC=C1c1ccc(Cl)cc1`, 71 to 72 °C.

For the compound `COC(=O)C=Cc1ccc(Br)cc1`, the melting point turned out to be 80 °C. The result for `O=S1(=O)CCN2C=CC=C(c3ccc(Oc4ccc(Cl)cc4)cc3)C2=N1` reads 232 to 234 °C. In the case of `O=C(COc1ccc(Cl)cc1)c1ccccc1`, the melting point was 81 to 86 °C. The compound `Cc1c(NC(=O)c2ccc(-c3ccc(Cl)s3)cc2)ccc2cc(CN3CCCCCC3)cnc12` registered a melting point of 186 to 187 °C. Under `O=C(Nc1cccc(F)c1)c1ccccc1O` stands 157 to 159 °C; under `CCN1CCCC1CNC(=O)CCCOc1ccc2nc3[nH]c(=O)[nH]c3cc2c1` (centres undefined), 233 to 237 °C; under `COC(=O)C1(NC(=O)Cc2cc(-c3ccc(Cl)cc3)ccc2C)CCCC(C(F)(F)F)C1` (centres undefined), 149 °C. The compound `C[C@@H](NS(C)(=O)=O)[C@](O)(Cn1cncn1)c1ccc(Cl)cc1Cl` (relative stereo) gave a melting point of 177 to 180 °C.

Compound `CON(C)C(=O)C(CO[Si](C)(C)C(C)(C)C)NC(=O)OC(C)(C)C` (centres undefined) displayed a melting point of 71 to 72 °C.

In turn, `c1cncc(-c2cccc(-n3cnc4cc(-c5ccoc5)cnc43)c2)c1` yielded a melting point of 191 to 192 °C. Under `O=C(c1nc(Cl)c(Cl)[nH]1)N1CCOCC1` stands 215 °C; under `Cc1ccccc1NC(=O)CN1C[C@@H](C)N(S(=O)(=O)c2cccc([N+](=O)[O-])c2)[C@@H](C)C1`, 163 to 164 °C; under `CCOc1cccnc1C(=O)NCCNC(=O)OC(C)(C)C`, 125 to 126 °C. Under `CC=C(Oc1nc(OC)cc(OC)n1)C(=O)OC` stands 71 °C; under `CN1c2ccccc2C(=C2CCN(C(=O)OCC(Cl)(Cl)Cl)CC2)c2ccccc21`, 190 to 192 °C; under `CCOC(=O)c1ccc(N=C(Nc2ccc(C(=O)OCC)cc2)c2ccc(-c3ccccc3)cc2)cc1`, 152 to 160 °C.

On to `FC1(F)N=c2cc3c(cc2=N1)OC(Br)O3`, for which the melting point fell in the range of 160 to 164 °C.

(Values after a melting point compilation (Tetko et al.; mined from patent text by program, amines drawn as free bases though some values may be those of a salt).)
